# From patent publication US6897348B2, “Bandage, methods of producing and using same” (Kimberly Clark Worldwide, Inc, priority 2001, dated 2005)
# Key:
# [1] = tested on: full thickness (excisional) wounds on dorsal skin; experiment: Accelerated wound healing study, full thickness acute wound model (re-epithelialization, epithelial thickness); type: in vivo; conditions: rat full thickness wound
# Procedure: Following the assessment of hemostatic agents, a study was conducted using the accelerated wound healing study protocol which follows. In the examples of the study, a series of comparative control bandage substrates were evaluated as to the speed at which wounds covered/dressed with such bandages healed. In particular, the rates of re-epithelialization were measured for wounds dressed by such control dressing materials. Additionally, the rates at which wounds heal that have been treated with a series of test compounds in accordance with the present invention, were also measured and compared with the controls.
# For the purposes of the examples, the test compounds consisted of chitosan, Niacinamide ascorbate (hereinafter NA) prepared by the method which follows; and chitosan niacinamide ascorbate salt (hereinafter CNA, prepared by the method which follows), 2-ply surgical gauze, and Comfeel® Plus Clear Dressing (Colorplast).
# Wounds were treated with test and control articles on the day of wounding (day 0) on 2, 4, 6, 8, 10, 12, and 14 days after the injury. CNA (freeze dried) was cut to the approximate size of the wound and applied over the wound. Chitosan (powder) and NA (powder) were applied over the wound to the depth that covered the underlying tissue. The gauze was cut to extend approximately 0.5 cm beyond the margins of the wound. The Comfeel® Plus dressing was cut to the approximate size of the wound and applied over the wound and also used to cover all test and control articles over the entire dorsal surface of the animal. […]
# For the study, twenty four albino rats (12M/12F), each weighing between 250-300 g, were anesthetized (90 mg/Kg Ketamine HCL and 10 mg/Kg Xylazine) and the entire dorsal region of each rat was shaved. […] The epithelial thickness of the three sections of the wound (margin, center and midpoint between these two) was measured by morphometric analysis of the microscopic image using Image-Pro Plus software, Version 3.0 (Media Cybernetics). The average thickness of these sites within the wound was determined for wound healing of the entire site.
# [2] = tested on: human blood; experiment: Lee and White Coagulation Assay in Human Blood; conditions: samples in dried form (5 mg/ml), triplicate
# Procedure: For the purposes of this application, and as a preliminary matter, a series of hemostatic agents were evaluated in order to determine a relative comparison of the effectiveness of such compounds on human blood. Each of the compounds were evaluated in the comparison against the standard control (human blood) and the negative control heparin, which is an anti-coagulant. […] Lee and White Coagulation Assay in Human Blood [table]
Compound,improvement in re-epithelialization over the gauze control ([1]; day 5) [%],re-epithelialization compared with the Comfeel control ([1]; over 15 days),re-epithelialization compared with the gauze control ([1]; over 15 days),BLOOD CLOTTING TIME (MIN) [2]
"NC(=O)c1cccnc1.O=C1O[C@H]([C@@H](O)CO)C(O)=C1O [NA, Niacinamide ascorbate]",> 50,larger growth rates (re-epithelialization rates),larger numbers for re-epithelialization than the control,
Heparin,,,,NC (NC = No Clot for 60 min)
